Tests used:
[1] = test system: Arabidopsis thaliana seedlings; test: Cytotoxicity of free DOX and DOX-loaded PMPs in Arabidopsis thaliana seedlings; type: in vivo, Arabidopsis thaliana Col-0; settings: 100 μM DOX dose; 24 hours exposure, then 3 days; 7-day old seedlings
Procedure: Grapefruit PMPs were produced and loaded with doxorubicin as described in Examples 16a and 16b. Wild type Arabidopsis thaliana Col-0 seeds were obtained from the ABRC, surface sterilized with 50% bleach, stratified for 1-3 d at 4° C., and germinated on half-strength (0.5×) Murashige and Skoog (MS) medium supplemented with 0.5% sucrose, 2.5 mM MES, pH 5.6, containing 0.8% agar, with a photoperiod of 16 h light 23° C./8 h dark 21° C.
To test whether PMPs can deliver a small molecule cargo in planta, 7-day old Arabidopsis thaliana seedlings were transferred to 0.5× liquid MS medium in a 24 well plate (1 seedling per well), and treated with free DOX or DOX-loaded PMPs with an encapsulated DOX dose of 0 (negative control), 25 μM, 50 μM and 100 μM. The plate was covered with aluminum foil and incubated for 24 hours. DOX-containing medium was removed, the seedlings were washed two times with ½×MS medium, and fresh medium was added. Seedlings were incubated for an additional 3 days under a normal photoperiod (16 h light 23° C./8 h dark 21° C.). Next, seedlings were removed from the plate and towel-dried for imaging and cytotoxicity was assessed by analyzing leaf vigor, leaf color and root length. Cytotoxicity is defined by shortening of the roots, loss of leaf vigor, and leaf discoloration (yellow instead of green) when compared to an untreated seedling control.

plants = settings: Culiarez-Mac et al, Plant Growth Regulation 1987; cited from earlier work
[2] = test system: Triticum aestivum cell line; test: Uptake of AF488-labeled lemon PMPs by plant cells (epifluorescence microscopy); type: cell-based; settings: 1×10^12 AF488-PMPs/mL, 2 hours at 24° C.
Procedure: (§1) Plant cell lines were purchased from the Deutsche Sammlung von Mikroorganismen und Zellkulturen (DSMZ) (Glycine max, #PC-1026; Triticum aestivum, #PC-998) and ABRC (Zea mays, Black Mexican sweet (BMS), and were grown in baffled vented 250 mL flasks in the dark, at 24° C. with agitation (110 rpm). Glycine max and Triticum aestivum were grown in 3.2 g/L Gamborg's B-5 Basal Medium with Minimal Organics supplemented (G5893, Millipore Sigma) pH 5.5, supplemented with 2% sucrose, and 2 mg/L 2,4-dichlorophenoxyacetic acid (2,4D) (D7299, Millipore Sigma) according to the supplier's instructions. BMS cells were grown in Murashige and Skoog basal medium pH 5.8, containing 4.3 g/L Murashige and Skoog Basal Salt Mixture (Sigma M5524), 2% sucrose (S0389, Millipore Sigma), 1×MS vitamin solution (M3900, Millipore Sigma), 2 mg/L 2,4-dichlorophenoxyacetic acid (D7299, Millipore Sigma) and 250 ug/L thiamine HCL (V-014, Millipore Sigma).
(§2) For treatment with AF488-PMPs, 5 mL of the cell suspensions was taken to determine the percent Pack Cell Volume (PCV). The PCV is defined as the volume of cells divided by the total volume of the cell culture aliquot, and expressed as a percentage. Cells were centrifuged for 5 min at 3900 rpm, and the volume of the cell pellet was determined. The % PCV for BMS, Glycine max, and Triticum aestivum were 20%, 15%, and 18%, respectively. For the uptake experiment, the % PCV of the cultures was adjusted to 2%, by diluting cells in their appropriate medium. Next, 125 μl of the plant cell suspensions was added to a 24 well plate, and duplicate samples were treated with 125 μl MES buffer (200 mM MES+10 mM NaCl, pH6) alone (negative control), AF488 dye only (dye only control) or a final concentration of 1×10^12 AF488-PMPs/mL diluted in MES buffer to 125 μl. Cells were incubated for 2 hours at 24° C. in the dark, washed three times with 1 mL MES buffer to remove AF488-PMPs or free dye that had not been taken up, and resuspended in 300 μL of MES buffer for imaging on an epifluorescence microscope (EVOS FL Auto 2, Invitrogen).

[3] = test system: Zea mays Black Mexican sweet (BMS) cells; test: as above; type: cell-based; settings: 1×10^12 AF488-PMPs/mL, 2 hours at 24° C.
Procedure: as §1, §2

Glycine max cell line = test: as above; type: cell-based; settings: 1×10^12 AF488-PMPs/mL, 2 hours at 24° C.
Procedure: as §1, §2

COc1cccc2c1C(=O)c1c(O)c3c(c(O)c1C2=O)C[C@@](O)(C(=O)CO)C[C@@H]3O[C@H]1C[C@H](N)[C@H](O)[C@H](C)O1 [free DOX, doxorubicin]
cytotoxicity (root shortening, loss of leaf vigor, leaf discoloration) [1]: root shortening and leaf discoloration
cytotoxicity in plants (plants): cytotoxic in plants

Alexa Fluor 488® NHS Ester [AF488 dye only]
AF488 fluorescence signal in cells (PMP uptake) [2]: no detectable fluorescence
AF488 fluorescence signal in cells (PMP uptake) [3]: no detectable fluorescence
AF488 fluorescence signal in cells (PMP uptake) (Glycine max cell line): no detectable fluorescence

From patent US12416009B2, “Methods and compositions for the modification of plants” (Flagship Pioneering Innovations VI, LLC, priority 2018, dated 2025)
